The structures appear in SMILES notation.

The test system of this assay is Tetranychus urticae. In words: Tetranychus urticae spray test (OP-resistant). In kind it is in vivo. Particulars: foliar, 144 h, after 6 days, French bean leaf disks. The method, then:
Tetranychus urticae—Spray Test (OP-Resistant)
To produce a suitable preparation of active compound, 1 part by weight of active compound is mixed with the stated amount of solvents and is diluted with water, containing an emulsifier concentration of 1000 ppm, to the desired concentration. Further test concentrations are prepared by dilution with emulsifier containing water.
French bean (Phaseolus vulgaris) leaf disks infected with all instars of the two spotted spidermite (Tetranychus urticae), are sprayed with a preparation of the active ingredient of the desired concentration.
After 6 days mortality in % is determined. 100% means all spider mites have been killed and 0% means none of the spider mites have been killed.

`C[C@H](NC(=O)c1cc(Cl)cc(SC(F)(F)F)c1)c1ncnn1-c1ccc(C#N)cn1` [Example I-042]: the mortality (commonly the percentage killed) at 500 g/ha was 90%.

The values above are taken from patent publication US12171229B2, “Heteroaryl-triazole and heteroaryl-tetrazole compounds as pesticides” (BAYER AKTIENGESELLSCHAFT, priority 2018, dated 2024).
